One may read the EC50 as the concentration needed to bring the measured effect to its halfway point. The clearance is the volume of plasma or blood freed of the substance per unit of time. Lower therefore signals inefficient removal. By half-life is commonly meant the time needed for the level to fall by half in the phase considered.

One series deals with Rattus norvegicus. The series can be described thus: Intestinotrophic activity in Sprague-Dawley rat assessed as increase in intestinal growth at 1000 nmol/kg, sc once daily through bolus administration for 5 days relative to control. It counts as functional.
The target of series [1] is T1, Glucagon-like peptide 2 receptor (Homo sapiens, UniProt O95838).
T1 sequence (O95838 whole entry): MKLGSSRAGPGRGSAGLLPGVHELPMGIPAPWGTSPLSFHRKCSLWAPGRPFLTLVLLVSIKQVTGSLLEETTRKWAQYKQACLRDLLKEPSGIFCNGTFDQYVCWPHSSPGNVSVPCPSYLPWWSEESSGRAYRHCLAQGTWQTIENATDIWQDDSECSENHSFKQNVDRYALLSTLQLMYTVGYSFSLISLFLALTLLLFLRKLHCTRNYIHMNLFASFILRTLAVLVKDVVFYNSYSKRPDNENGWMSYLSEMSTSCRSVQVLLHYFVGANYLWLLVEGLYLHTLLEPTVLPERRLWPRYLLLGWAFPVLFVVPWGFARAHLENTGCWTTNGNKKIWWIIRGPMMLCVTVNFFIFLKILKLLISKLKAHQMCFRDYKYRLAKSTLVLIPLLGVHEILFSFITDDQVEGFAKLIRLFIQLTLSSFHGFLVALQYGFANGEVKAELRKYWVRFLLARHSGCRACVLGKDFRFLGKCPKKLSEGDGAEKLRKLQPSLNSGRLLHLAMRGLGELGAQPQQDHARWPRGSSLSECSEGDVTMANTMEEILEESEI
Description: Agonist activity at human GLP2R expressed in HEK293 cells after 5 hrs by luciferase reporter gene assay. It is filed as cell-based. Background: Reporter assays use an easily measured gene product as a stand-in for the process of interest.

For series [2], the target named is Glucagon-like peptide 1 receptor (Homo sapiens, UniProt P43220). Description: Agonist activity at human GLP1R expressed in HEK293 cells after 5 hrs by luciferase reporter gene assay. It is filed as cell-based.
Sequence of Glucagon-like peptide 1 receptor (P43220 whole entry): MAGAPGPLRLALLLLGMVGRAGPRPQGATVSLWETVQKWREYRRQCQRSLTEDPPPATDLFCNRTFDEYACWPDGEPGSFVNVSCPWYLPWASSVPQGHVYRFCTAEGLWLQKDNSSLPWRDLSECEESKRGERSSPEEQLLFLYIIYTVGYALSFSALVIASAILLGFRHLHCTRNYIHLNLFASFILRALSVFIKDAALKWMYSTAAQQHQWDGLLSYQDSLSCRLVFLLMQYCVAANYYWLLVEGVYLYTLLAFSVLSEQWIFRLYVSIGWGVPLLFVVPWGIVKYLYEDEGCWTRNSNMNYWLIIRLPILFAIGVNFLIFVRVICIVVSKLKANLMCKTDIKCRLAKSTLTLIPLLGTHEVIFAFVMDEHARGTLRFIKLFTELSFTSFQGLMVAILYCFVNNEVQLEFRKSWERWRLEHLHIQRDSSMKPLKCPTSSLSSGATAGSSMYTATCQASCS
Series [3] can be described thus: Protein binding in rat plasma at 200 to 1000 ng/ml incubated for 15 mins by LC/MS/MS based ultracentrifugation method. It counts as ADME, cell-free. The conditions noted are these: read-out: PPB (converted).
For series [4], the target named is T2, Glucagon-like peptide 2 receptor (Rattus norvegicus, UniProt Q9Z0W0).
T2 sequence (Q9Z0W0 whole entry): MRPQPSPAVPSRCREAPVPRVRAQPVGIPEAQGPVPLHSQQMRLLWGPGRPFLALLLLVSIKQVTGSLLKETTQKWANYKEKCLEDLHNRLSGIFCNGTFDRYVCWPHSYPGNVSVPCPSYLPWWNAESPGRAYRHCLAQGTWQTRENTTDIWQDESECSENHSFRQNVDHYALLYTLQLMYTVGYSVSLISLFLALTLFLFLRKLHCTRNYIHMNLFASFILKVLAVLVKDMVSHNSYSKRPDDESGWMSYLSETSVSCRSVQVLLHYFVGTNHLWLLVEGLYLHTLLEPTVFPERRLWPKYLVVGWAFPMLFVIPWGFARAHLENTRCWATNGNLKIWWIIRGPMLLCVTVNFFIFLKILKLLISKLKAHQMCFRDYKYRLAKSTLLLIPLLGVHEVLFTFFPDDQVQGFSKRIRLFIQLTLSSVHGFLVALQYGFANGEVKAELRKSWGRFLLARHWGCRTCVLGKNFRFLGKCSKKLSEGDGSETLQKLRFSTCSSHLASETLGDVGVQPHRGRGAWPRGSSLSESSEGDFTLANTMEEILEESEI
Description: Agonist activity at rat GLP2R expressed in HEK293 cells after 5 hrs by luciferase reporter gene assay. It counts as cell-based.

A further series relates to HEK293. The series can be described thus: Selectivity ratio of EC50 for human GLP1R expressed in HEK293 cells to EC50 for human GLP2R expressed in HEK293. It is filed as cell-based.
The nature of series [5]: Systemic clearance in Sprague-Dawley rat at 0.2 mg/kg, iv through cassette dosing measured up to 300 mins by LC/MS/MS analysis. It counts as ADME, organism-based. The conditions noted are these: in vivo.
The target in series [6] is Glucagon receptor (Homo sapiens) (UniProt P47871). Description: Agonist activity at human GCGR expressed in HEK293 cells up to 1000 nM after 5 hrs by luciferase reporter gene assay. It is filed as cell-based.
Sequence of Glucagon receptor (Homo sapiens) (P47871 whole entry): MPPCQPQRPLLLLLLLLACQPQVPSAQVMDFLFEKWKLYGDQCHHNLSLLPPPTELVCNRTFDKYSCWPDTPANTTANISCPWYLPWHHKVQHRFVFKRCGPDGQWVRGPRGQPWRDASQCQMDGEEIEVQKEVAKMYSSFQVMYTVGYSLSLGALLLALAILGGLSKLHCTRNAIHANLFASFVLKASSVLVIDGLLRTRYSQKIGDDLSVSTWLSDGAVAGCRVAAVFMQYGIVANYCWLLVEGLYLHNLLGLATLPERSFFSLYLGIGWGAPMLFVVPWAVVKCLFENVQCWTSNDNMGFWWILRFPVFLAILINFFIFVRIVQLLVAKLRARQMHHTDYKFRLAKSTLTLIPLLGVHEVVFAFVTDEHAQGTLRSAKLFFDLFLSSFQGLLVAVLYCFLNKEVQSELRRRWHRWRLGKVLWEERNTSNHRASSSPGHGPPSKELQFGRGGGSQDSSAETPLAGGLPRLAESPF
Series [7] can be described thus: Half life in sc dosed human. It is filed as ADME, organism-based. The conditions noted are these: in vivo.

The structures appear in SMILES notation. The source made the active and inactive calls. Non-standard residues stand in square brackets, D forms with d. Residues, ends and D or L forms follow the SMILES beside them. ξ: configuration not given here. ξNle = CCCCC(N)C(=O)O

In the case of `CCCC[C@H](NC(=O)[C@H](CCC(=O)O)NC(=O)[C@H](CC(=O)O)NC(=O)[C@H](CO)NC(=O)[C@H](Cc1ccccc1)NC(=O)[C@H](CO)NC(=O)CNC(=O)[C@H](CC(=O)O)NC(=O)CNC(=O)[C@@H](N)Cc1cnc[nH]1)C(=O)N[C@H](Cc1ccccc1)C(=O)N[C@H](C(=O)N[C@H](C(=O)N[C@@H](CC(C)C)C(=O)N[C@@H](CC(=O)O)C(=O)N[C@@H](CC(C)C)C(=O)N[C@@H](CC(C)C)C(=O)N[C@@H](C)C(=O)N[C@@H](C)C(=O)N[C@@H](CCCNC(=N)N)C(=O)N[C@@H](CC(=O)O)C(=O)N[C@@H](Cc1ccccc1)C(=O)N[C@H](C(=O)N[C@@H](CC(N)=O)C(=O)N[C@@H](Cc1c[nH]c2ccccc12)C(=O)N[C@@H](CC(C)C)C(=O)N[C@H](C(=O)N[C@@H](CCC(N)=O)C(=O)N[C@H](C(=O)N[C@@H](CCCCN)C(=O)N[C@H](C(=O)N[C@H](C(=O)N[C@@H](CC(=O)O)C(N)=O)[C@@H](C)O)[C@@H](C)CC)[C@@H](C)O)[C@@H](C)CC)[C@@H](C)CC)[C@@H](C)CC)[C@@H](C)O` [listing 1 of 2 here], the Activity with Rattus norvegicus came to 61.2%.

On to `CCCC[C@H](NC(=O)[C@H](CCC(=O)O)NC(=O)[C@H](CC(=O)O)NC(=O)[C@H](CO)NC(=O)[C@H](Cc1ccccc1)NC(=O)[C@H](CO)NC(=O)CNC(=O)[C@H](CC(=O)O)NC(=O)CNC(=O)[C@@H](N)Cc1cnc[nH]1)C(=O)N[C@H](Cc1ccccc1)C(=O)N[C@H](C(=O)N[C@H](C(=O)N[C@@H](CC(C)C)C(=O)N[C@@H](CC(=O)O)C(=O)N[C@@H](CC(C)C)C(=O)N[C@@H](CC(C)C)C(=O)N[C@@H](C)C(=O)N[C@@H](C)C(=O)N[C@@H](CCCNC(=N)N)C(=O)N[C@@H](CC(=O)O)C(=O)N[C@@H](Cc1ccccc1)C(=O)N[C@H](C(=O)N[C@@H](CC(N)=O)C(=O)N[C@@H](Cc1c[nH]c2ccccc12)C(=O)N[C@@H](CC(C)C)C(=O)N[C@H](C(=O)N[C@@H](CCC(N)=O)C(=O)N[C@H](C(=O)N[C@@H](CCCCN)C(=O)N[C@H](C(=O)N[C@H](C(=O)N[C@@H](CC(=O)O)C(N)=O)[C@@H](C)O)[C@@H](C)CC)[C@@H](C)O)[C@@H](C)CC)[C@@H](C)CC)[C@@H](C)CC)[C@@H](C)O` [listing 2 of 2 here], for which the 50% effective concentration (EC50) in series [1] is 0.03 nM; in series [2], over 1000 nM; in series [4], 0.04 nM. In addition, the fraction unbound at 0.25 h in series [3] is 0.008.

Turning to `CCCCC(NC(=O)[C@H](CCC(=O)O)NC(=O)[C@H](CC(=O)O)NC(=O)[C@H](CO)NC(=O)[C@H](Cc1ccccc1)NC(=O)[C@H](CO)NC(=O)CNC(=O)[C@H](CC(=O)O)NC(=O)CNC(=O)[C@@H](N)Cc1cnc[nH]1)C(=O)N[C@@H](CC(N)=O)C(=O)N[C@H](C(=O)N[C@H](C(=O)N[C@@H](CC(C)C)C(=O)N[C@@H](CC(=O)O)C(=O)N[C@@H](CC(C)C)C(=O)N[C@@H](CC(C)C)C(=O)N[C@@H](C)C(=O)N[C@@H](C)C(=O)N[C@@H](CCCNC(=N)N)C(=O)N[C@@H](CC(=O)O)C(=O)N[C@@H](Cc1ccccc1)C(=O)N[C@H](C(=O)N[C@@H](CC(N)=O)C(=O)N[C@@H](Cc1c[nH]c2ccccc12)C(=O)N[C@@H](CC(C)C)C(=O)N[C@H](C(=O)N[C@@H](CCC(N)=O)C(=O)N[C@H](C(=O)N[C@@H](CCCCN)C(N)=O)[C@@H](C)O)[C@@H](C)CC)[C@@H](C)CC)[C@@H](C)CC)[C@@H](C)O` (stereo partly specified) (H-HGDGSFSDE[ξNle]NTILDLLAARDFINWLIQTK-NH2), the EC50 in series [1] is 0.1 nM; in series [2], over 1000 nM. In addition, in the series with HEK293, the Ratio EC50 was over 10000. For the same compound, the clearance in series [5] was found to be 0.84 mL/min/kg. Further, the result in series [6] was inactive. The fraction unbound at 0.25 h in [3] is 0.013.

With `CC[C@H](C)[C@H](NC(=O)[C@H](Cc1ccccc1)NC(=O)[C@H](CC(=O)O)NC(=O)[C@H](CCCNC(=N)N)NC(=O)[C@H](C)NC(=O)[C@H](C)NC(=O)[C@H](CC(C)C)NC(=O)[C@H](CC(N)=O)NC(=O)[C@H](CC(=O)O)NC(=O)[C@H](CC(C)C)NC(=O)[C@@H](NC(=O)[C@@H](NC(=O)[C@H](CC(N)=O)NC(=O)[C@H](CCSC)NC(=O)[C@H](CCC(=O)O)NC(=O)[C@H](CC(=O)O)NC(=O)[C@H](CO)NC(=O)[C@H](Cc1ccccc1)NC(=O)[C@H](CO)NC(=O)CNC(=O)[C@H](CC(=O)O)NC(=O)CNC(=O)[C@@H](N)Cc1c[nH]cn1)[C@@H](C)O)[C@@H](C)CC)C(=O)N[C@@H](CC(N)=O)C(=O)N[C@@H](Cc1c[nH]c2ccccc12)C(=O)N[C@@H](CC(C)C)C(=O)N[C@H](C(=O)N[C@@H](CCC(N)=O)C(=O)N[C@H](C(=O)N[C@@H](CCCCN)C(=O)N[C@H](C(=O)N[C@H](C(=O)N[C@@H](CC(=O)O)C(=O)O)[C@@H](C)O)[C@@H](C)CC)[C@@H](C)O)[C@@H](C)CC` [TEDUGLUTIDE], the EC50 is over 1000 nM in [2] and 0.08 nM in series [4]. In series [7], the half-life was 3 h. In series [3], the fraction unbound at 0.25 h is 0.419. In the series with Rattus norvegicus, the Activity was 39%.

Turning to `CCCCC(NC(=O)[C@H](CCC(=O)O)NC(=O)[C@H](CC(=O)O)NC(=O)[C@H](CO)NC(=O)[C@H](Cc1ccccc1)NC(=O)[C@H](CO)NC(=O)CNC(=O)[C@H](CC(=O)O)NC(=O)CNC(=O)[C@@H](N)Cc1cnc[nH]1)C(=O)N[C@H](Cc1ccccc1)C(=O)N[C@H](C(=O)N[C@H](C(=O)N[C@@H](CC(C)C)C(=O)N[C@@H](CC(=O)O)C(=O)N[C@@H](CC(C)C)C(=O)N[C@@H](CC(C)C)C(=O)N[C@@H](C)C(=O)N[C@@H](C)C(=O)N[C@@H](CCCNC(=N)N)C(=O)N[C@@H](CC(=O)O)C(=O)N[C@@H](Cc1ccccc1)C(=O)N[C@H](C(=O)N[C@@H](CC(N)=O)C(=O)N[C@@H](Cc1c[nH]c2ccccc12)C(=O)N[C@@H](CC(C)C)C(=O)N[C@H](C(=O)N[C@@H](CCC(N)=O)C(=O)N[C@H](C(=O)N[C@@H](CCCCN)C(=O)N[C@H](C(=O)N[C@H](C(=O)N[C@@H](CC(=O)O)C(=O)NCC(C)C)[C@@H](C)O)[C@@H](C)CC)[C@@H](C)O)[C@@H](C)CC)[C@@H](C)CC)[C@@H](C)CC)[C@@H](C)O` (stereo partly specified), the figures for the EC50 in [1] and in [2] were 0.06 nM and over 1000 nM, respectively. Moreover, the Ratio EC50 in the series on HEK293 is over 16000. This compound came in with a clearance in series [5] of 0.17 mL/min/kg. Further, in series [3], the fraction unbound at 0.25 h was 0.016.

These data come from ChEMBL document CHEMBL3822442, “Synthesis and Pharmacological Characterization of Novel Glucagon-like Peptide-2 (GLP-2) Analogues with Low Systemic Clearance” (J Med Chem, 2016).
